The results in this text go back to the Bradley open melting point set (2014).

What is called melting point is the temperature of the solid-liquid transition.

Where “and” joins values, the source holds several entries; their conditions need not be identical. Equal values may be shown once.

On to `CCOC(=O)Nc1cccc([N+](=O)[O-])c1[N+](=O)[O-]` [ethyl (2,3-dinitrophenyl)carbamate], for which the melting point was determined as 103 °C.
`N#Cc1cccc(C=O)c1` [3-cyanobenzaldehyde] showed a melting point of 77 °C.
With `COC(=O)/C=C(/C(=O)OC)N(Nc1ccccc1N=Nc1ccccc1)c1ccccc1`, the melting point stood at 154 °C.
`Nc1ccc2cc(O)ccc2c1` [6-Amino-2-naphthalenol] came in with a melting point of 185 °C.
The result for `Cc1ccc(C(=O)O)cc1` [p-toluic acid] reads 180 °C.
`Nc1ccn([C@@H]2O[C@H](CO)[C@@H](O)[C@H]2O)c(=O)n1` [Cytidine] came in with a melting point of 210 °C.
Turning to `C=COCC` [ethyl vinyl ether], the melting point is -115 °C.
Consider `O=[N+]([O-])c1ccc(F)cc1F` [2,4-difluoro-1-nitrobenzene], for which the melting point amounted to 10 °C.
The result for `Cc1c(N)cccc1N` [2,6-diaminotoluene] reads 105 °C; that for `O=C(O)CI` [iodoacetic acid], 81 °C; that for `O=C(Cl)c1ccc([N+](=O)[O-])cc1` [4-nitrobenzoyl chloride], 73 °C.
The value for `CS(C)(=O)=O` [dimethyl sulfone] was 110 °C; that for `CC1(C)O[C@@H](CO)[C@H](CO)O1` [2,3-o-isopropylidene-l-threitol] was 47 °C; that for `CC(=O)NNC(N)=S` [1-acetyl-3-thiosemicarbazide] was 167 °C.
`C[C@@H](O)[C@H](N)C(=O)O` [L-Threonine] displayed a melting point of 256 °C.
The result for `O=S(=O)(O)CCCNC(CO)(CO)CO` reads 230 °C; that for `CCCCC(CC)COC(=O)c1ccccc1C(=O)OCC(CC)CCCC` (configuration not stated) [bis-2-ethylhexyl_phthalate], -50 °C.
The value for `O=C=N/c1cccc(N=C=O)c1C` [1,3-Diisocyanato-2-methylbenzene] was 20 °C.
`COc1ccc(B(O)O)c(OC)c1` [2,4-dimethoxybenzeneboronic acid] showed a melting point of 118 °C.
The value for `CCC1(C2=CCCCCC2)C(=O)NC(=O)NC1=O` [heptabarbital] was 175 °C.
The value for `OCC12CC3CC(CC(C3)C1)C2` [1-adamantanemethanol] was 117 °C.
The value for `CC(=O)OC(C)=O` [acetic anhydride] was -73 °C; that for `CCCCCCCCCCCCCCCCCCCC` [Icosane] was 36.7 °C.
The molecule `O=C1COC(c2ccc(C(F)(F)F)cc2)CN1` (configuration not stated) [flumetramide] yielded a melting point of 116 °C.
Consider `CC(=O)C(C)=O` [Biacetyl], for which the melting point was -3 °C.
`CC(=O)N1CCc2cc(Br)ccc21` [1-acetyl-5-bromoindoline] displayed a melting point of 120 °C.
The value for `Cc1cc(O)ccc1Cl` [4-Chloro-3-methylphenol] was 67 °C.
The result for `OB(O)c1ccccc1` [benzeneboronic acid] reads 217 °C; that for `CC(=O)c1ccc(O)c(C(N)=O)c1` [5-acetylsalicylamide], 221 °C; that for `CCO` [Ethanol], -114 °C.
The value for `ClCc1cccc(CCl)c1` [a,a'-dichloro-m-xylene] was 36 °C.
As for `O=C4\C=C2/[C@]([C@H]1CC[C@@]3([C@@H](O)CC[C@H]3[C@@H]1CC2)C)(C)CC4` [testosterone], the melting point is 155 °C and 154 °C.
`COc1ccccc1-c1ccc(/C=C/C(=O)c2ccccc2)o1` gave a melting point of 99 °C.
The value for `O=C(CCCN1CCC(O)(c2ccc(Cl)cc2)CC1)c1ccc(F)cc1` [Haloperidol] was 152 °C; that for `CN(C)[C@@H]1C(O)=C(C(N)=O)C(=O)[C@@]2(O)C(O)=C3C(=O)c4c(O)cccc4[C@@](C)(O)[C@H]3[C@H](O)[C@@H]12` [Oxytetracycline] was 183 °C; that for `N#Cc1c(F)c(F)c(F)c(C#N)c1F` [2,4,5,6-Tetrafluoroisophthalonitrile] was 79 °C.
The value for `BrCBr` [Dibromomethane] was -52 °C.
As to `O=C(O)c1cc([N+](=O)[O-])ccc1Cl` [2-chloro-5-nitrobenzoic acid], the melting point was 167 °C.
Molecule `CC(C)(C)NCC(O)COc1cc(Cl)ccc1Cl` (configuration not stated) [cloranolol] came in with a melting point of 82 °C.
Turning to `CCCCCCCCCCCCCCCCCCCCCC` [N-docosane], the melting point was 45 °C.
The result for `O=C(O)CCCCCCCCCCCCCCO` [15-hydroxypentadecanoic acid] reads 86 °C; that for `CCCCOCC` [ethyl_butyl_ether], -103 °C; that for `ClC1=C(Cl)C2(Cl)C3C(Cl)C=CC3C1(Cl)C2(Cl)Cl` (configuration not stated) [Heptachlor], 95 °C.
As to `CCCCCCCCC` [N-nonane], the melting point was -53 °C.
`O=C(NCc1ccccc1)OCCO` [buramate]: the melting point was 40 °C.
The value for `Oc1ccccc1` [phenol] was 41 °C (3×) and 42 °C.
As for `Oc1ccc2ccccc2c1` [2-naphthol], the melting point was 123 °C and 122 °C.
Take `O=C(OC)\C1=C(\N/C(=C(/C(=O)OC)C1c2ccccc2[N+]([O-])=O)C)C` [nifedipine]: the melting point stood at 173 °C.
The result for `CC(C)(C)c1ccc2c(c1)OCCOCCOc1cc(C(C)(C)C)ccc1OCCOCCO2` [4',4''(5'')-di-tert-butyldibenzo-18-crown-6] reads 110 °C.
The value for `CC(C)(C)I` [2-iodo-2-methylpropane] was -38 °C; that for `O=CC1CCCCC1` [cyclohexanecarboxaldehyde] was 35 °C; that for `CCC1(CC)C(=O)CCNC1=O` [piperidione] was 102 °C.
`COc1ccc(OC)c(C)c1` [2,5-dimethoxytoluene]: the melting point stood at 20 °C.
`Oc1ccc2cccc(O)c2c1` [1,7-dihydroxynaphthalene]: the melting point stood at 182 °C.
The result for `COC(=O)c1cccc([N+](=O)[O-])c1` [methyl_3-nitrobenzoate] reads 80 °C.
For `CCc1cccc(O)c1` [3-ethylphenol], the melting point is -4 °C.
The value for `CCCCCCCCCCCO` [1-undecanol] was 16 °C and 14 °C; that for `BrC(Br)c1ccc(C(Br)Br)cc1` [1,4-bis(dibromomethyl)benzene] was 168 °C; that for `CCCCCCCCCCCCCCCC` [N-hexadecane] was 18 °C.
The value for `C1COCCN1` [morpholine] was -5 °C; that for `Nc1cccc2c1C(=O)c1ccccc1C2=O` [1-aminoanthraquinone] was 254 °C.
The result for `Cc1ccc(Cl)cc1` [1-Chloro-4-methylbenzene] reads 7.5 °C; that for `CCCCc1ccc(/N=N/c2ccc(OCCC)cc2)cc1` [(E)-1-(4-butylphenyl)-2-(4-propoxyphenyl)diazene], 67 °C.
`Brc1ccc2ccccc2c1` [2-bromonaphthalene] registered a melting point of 55 °C.
For the molecule `Cc1cc(Cl)ccc1B(O)O` [4-chloro-2-methylbenzeneboronic acid], the melting point was 194 °C.
The value for `CC(C)c1ccccc1` [Isopropylbenzene] was -96 °C.
The molecule `Cn1c(=O)c2c(ncn2C)n(C)c1=O` [Caffeine] registered a melting point of 236 °C.
